According to patent US9422248B2 (University of Iowa Research Foundation, priority 2012, dated 2016):
Values joined by “and” are separate entries in the source; they are usually repeats but may differ in a detail not shown here. Identical values can stand only once. Like-named read-outs stand apart in the source and are kept apart here.

How the values were obtained:
[1] = test system: scMET model (pentylenetetrazole, Metrazol); test: scMET test (subcutaneous Metrazol); format: in vivo, mouse; conditions: for responders at 30 mg/kg / responders at 100 mg/kg / responders at 300 mg/kg: Mus musculus, scMET, read-out: number of animals protected/number of animals tested; for responders at 30 mg/kg: 30 mg/kg ip; for responders at 100 mg/kg: 100 mg/kg ip; for responders at 300 mg/kg: 300 mg/kg ip
Excerpt: (§1) All compounds (FIG. 1) were screened in three whole mouse models: the maximal electroshock model (MES), the scMET test (pentylenetetrazole, Metrazol), and the 6 Hz psychomotor seizure model of partial epilepsy (32 mA). Adult male CF No 1 albino mice (26-30 g) were used for the 6 Hz test and 18-25 g mice were used in the MES and scMet tests. The animals are housed, fed, and handled in a manner consistent with the recommendations in the National Council Publication, “Guide for the Care and Use of Laboratory Animals”. The animal studies were performed by the NINDS Anticonvulsant Screening Program under IACUC number 09-12014. All compounds were administered ip in polyethylene glycol, 30%.
(§2) The MES model, which generates generalized tonic-clonic seizures, involved pretreating mice with experimental compound, and administering 60 Hz of alternating current (50 mA) for 2 s via corneal electrodes. Prior to current administration, the animal's corneas were treated topically with 1% tetracaine. Animals are considered protected if the hindlimb tonic extensor component is absent. The scMET test was done by pretreating mice with experimental compound and administering 85 mg/kg Metrazol into the loose folds of the skin in the midline of the neck. Eighty-five mg/kg Metrazol is the dose that causes seizures in 97% (CD97) of control animals.

6 Hz (32 mA) model = test: 6 Hz (32 mA) psychomotor seizure model of partial epilepsy; format: in vivo, mouse; conditions: for ED50: ip; for complete protection, animals: 6 Hz, one or more time points from 0.25 or 1 h; for antiseizure activity in the 6 Hz model: mouse, in vivo; for Protective effects, number of animals protected/number of animals tested: 100 mg/kg ip
Excerpt: as §1
(§3) The 6 Hz test (also known as the minimal clonic seizure, or psychomotor test) involved delivering a corneal stimulus of 32 mA for 3 s. This current elicits psychomotor seizures in 97% of untreated animals. Seizures consist of a minimal clonic phase followed by stereotyped automatistic behaviors. Animals not showing such behaviors were considered protected. Toxicity was determined by the rotorod test. For this test, the animal is placed on a rotorod at 6 rpm following dosing. The animal is considered toxic if it falls off the rotorod three times in a 1 min period. The ED50, TD50 and confidence intervals were determined by probit analysis.

[2] = test system: maximal electroshock (MES) model; test: maximal electroshock (MES) model; format: in vivo, mouse; conditions: for responders at 30 mg/kg / responders at 100 mg/kg / responders at 300 mg/kg: Mus musculus, MES; for responders at 30 mg/kg: 30 mg/kg ip; for responders at 30 mg/kg / responders at 300 mg/kg: read-out: number of animals protected/number of animals tested; for responders at 100 mg/kg: 100 mg/kg ip, read-out: number of animals protected/number of animals tested (converted); for responders at 300 mg/kg: 300 mg/kg ip
Excerpt: as §1, §2

rotorod test = test: Toxicity by the rotorod test; format: in vivo; conditions: for TD50: rotorod, ip, probit analysis
Excerpt: All compounds (FIG. 1) were screened in three whole mouse models: the maximal electroshock model (MES), the scMET test (pentylenetetrazole, Metrazol), and the 6 Hz psychomotor seizure model of partial epilepsy (32 mA). Adult male CF No 1 albino mice (26-30 g) were used for the 6 Hz test and 18-25 g mice were used in the MES and scMet tests. The animals are housed, fed, and handled in a manner consistent with the recommendations in the National Council Publication, “Guide for the Care and Use of Laboratory Animals”. […] All compounds were administered ip in polyethylene glycol, 30%.
as §3, with “This current elicits psychomotor seizures in 97% of untreated animals.” left out

[3] = Mus musculus, 6 Hz (32 mA), probit analysis, read-out: ED50

Row | SMILES | responders at 30 mg/kg ([1]; 0.5 h) | responders at 30 mg/kg ([1]; 4 h) | responders at 100 mg/kg ([1]; 0.5 h) | responders at 100 mg/kg ([1]; 4 h) | responders at 300 mg/kg ([1]; 0.5 h) | responders at 300 mg/kg ([1]; 4 h) | ED50 (6 Hz (32 mA) model; 6 Hz (32 mA), probit analysis) | complete protection, animals (6 Hz (32 mA) model; 100 mg/kg) | ED50 (6 Hz (32 mA) model; [3]) | responders at 30 mg/kg ([2]; 0.5 h) | responders at 30 mg/kg ([2]; 4 h) | responders at 100 mg/kg ([2]; 0.5 h) | responders at 100 mg/kg ([2]; 4 h) | responders at 300 mg/kg ([2]; 0.5 h) | responders at 300 mg/kg ([2]; 4 h) | MES protection ([2]; any dose (30-300 mg/kg ip)) | TD50 (rotorod test) | antiseizure activity in the 6 Hz model (6 Hz (32 mA) model) | MES protection ([2]; 300 mg/kg dose) | MES protection, time points after dosing ([2]; 300 mg/kg dose) | also measured
1 | CC(C)c1cc(C(O)C(F)(F)F)cc(Br)c1O (stereo not drawn) [RM122, 2-Bromo-6-isopropyl-4-(2,2,2-trifluoro-1-hydroxy-ethyl)-phenol] | 0% | 0% | 0% | 0% | 0% | 0% | 112.45 mg/kg | 4 of 4 | 112 mg/kg | 0% | 0% | 0% | 0% | 0% | 0% | no MES protection | 403 mg/kg and 403.12 mg/kg |  |  |  | 
2 | CC(C)c1cc(C(O)C(F)(F)F)ccc1O (stereo not drawn) [RM125, 2-iso-Propyl-4-(2,2,2-trifluoro-1-hydroxy-ethyl)-phenol] | 0% | 0% | 0% | 0% | 100% | 100% | 84.12 mg/kg | 4 of 4 | 84 mg/kg | 0% | 0% | 0% | 0% | 100% | 100% |  | 161.12 mg/kg | relatively good antiseizure activity | some protection | protection at both 0.5 and 4 h | scMET protection, time points after dosing ([1]; 300 mg/kg dose): protection at the highest 300 mg/kg dose at 0.5 and 4 h; responders at 100 mg/kg ([2]; 0.25 h): 0%; responders at 100 mg/kg ([2]; 1 h): 33.3%; responders at 100 mg/kg ([2]; 2 h): 33.3%; responders at 100 mg/kg ([2]; 6 h): 0%
3 | CCC(C)c1cc(C(O)C(F)(F)F)cc(Br)c1O (stereo not drawn) [RM129, 2-Bromo-6-sec-Butyl-4-(2,2,2-trifluoro-1-hydroxy-ethyl)-phenol] | 0% | 0% | 0% | 0% | 0% | 0% |  | 4 of 4 |  | 0% | 0% | 0% | 0% | 100% | 0% |  | 144.4 mg/kg |  | some protection | protected only at 0.5 h | ED50 (6 Hz (32 mA) model; Mus musculus): 87.6 mg/kg; responders at 100 mg/kg ([2]; 0.25 h): 0%; responders at 100 mg/kg ([2]; 1 h): 0%
4 | CCC(C)c1cc(C(O)C(F)(F)F)ccc1O (stereo not drawn) [RM131, 2-sec-Butyl-4-(2,2,2-trifluoro-1-hydroxy-ethyl)-phenol] | 0% | 0% | 0% | 0% | 100% | 0% | 53.85 mg/kg | 4 of 4 | 53.8 mg/kg | 0% | 0% | 0% | 0% | 100% | 0% |  | 86 mg/kg and 86.04 mg/kg | relatively good antiseizure activity | some protection | protected only at 0.5 h | 
5 | CCc1cc(C(O)C(F)(F)F)ccc1O (stereo not drawn) [RM166, 2-Ethyl-4-(2,2,2-trifluoro-1-hydroxy-ethyl)-phenol] | 0% | 0% | 0% | 0% | 0% | 0% |  |  |  | 0% | 0% | 0% | 0% | 0% | 0% | no MES protection |  |  |  |  | protective effects in the 6 Hz test (6 Hz (32 mA) model; 100 mg/kg, any time point from 0.25 to 4 h): no protective effects; Protective effects, number of animals protected/number of animals tested (6 Hz (32 mA) model; 6 Hz (32 mA), 0.25 h): 0/4; Protective effects, number of animals protected/number of animals tested (6 Hz (32 mA) model; 6 Hz (32 mA), 0.5 h): 0/4; Protective effects, number of animals protected/number of animals tested (6 Hz (32 mA) model; 6 Hz (32 mA), 1 h): 0/4; Protective effects, number of animals protected/number of animals tested (6 Hz (32 mA) model; 6 Hz (32 mA), 2 h): 0/4; Protective effects, number of animals protected/number of animals tested (6 Hz (32 mA) model; 6 Hz (32 mA), 4 h): 1/4; Toxicity, animals/number of animals tested (rotorod test; dose 100 mg/kg ip, 0.5 h): 0/8; Toxicity, animals/number of animals tested (rotorod test; dose 100 mg/kg ip, 4 h): 0/4; Toxicity, animals/number of animals tested (rotorod test; dose 30 ip, 0.5 h): 0/4; Toxicity, animals/number of animals tested (rotorod test; dose 30 ip, 4 h): 0/2; Toxicity, animals/number of animals tested (rotorod test; dose 300 ip, 0.5 h): 0/4; Toxicity, animals/number of animals tested (rotorod test; dose 300 ip, 4 h): 0/2; evidence of toxicity (rotorod test; doses up to 300 mg/kg): Neither RM170 nor RM166 showed any evidence of toxicity
